Experimental data reported in patent US20100285087A1, “SINGLE PHENOTHIAZINE ENANTIOMERS AS AGENTS FOR THE PREVENTION OF BONE LOSS” (The University Of Texas, priority 2003, published 2010).
pIC50: −log10 of the molar value. Like-named read-outs stand apart in the source and are kept apart here. Each block holds one molecule with its values, some of them ahead of it.

Experiments:
H1 receptor = target: T1, H1 receptor (Homo sapiens, UniProt P35367); assay: Histamine-stimulated IL-6 production in HUVEC cells (RT-PCR); format: cell-based; conditions: for Anti-histamine activity (IL-6 production assay), in words: 10^−5 M; for Histamine-stimulated IL-6 production reduced to fraction of that observed with histamine stimulation: ethopropazine concentration 10^−4 M
T1 construct: endogenous in cells; host or cells: HUVEC
T1 sequence (P35367 whole entry): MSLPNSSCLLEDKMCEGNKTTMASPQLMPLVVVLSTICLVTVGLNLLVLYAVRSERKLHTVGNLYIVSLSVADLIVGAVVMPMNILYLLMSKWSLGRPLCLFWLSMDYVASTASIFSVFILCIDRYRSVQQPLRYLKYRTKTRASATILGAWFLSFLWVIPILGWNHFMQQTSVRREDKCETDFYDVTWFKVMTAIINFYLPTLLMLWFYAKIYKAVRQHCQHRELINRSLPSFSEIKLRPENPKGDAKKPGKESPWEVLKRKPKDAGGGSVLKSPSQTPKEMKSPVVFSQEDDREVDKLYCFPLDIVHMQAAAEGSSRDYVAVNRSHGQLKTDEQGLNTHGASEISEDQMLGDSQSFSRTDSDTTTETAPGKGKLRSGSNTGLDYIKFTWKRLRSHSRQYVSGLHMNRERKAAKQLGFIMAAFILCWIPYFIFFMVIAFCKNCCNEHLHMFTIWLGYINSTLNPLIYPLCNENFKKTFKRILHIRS
Description: In the present studies, HUVEC cells were plated and grown to confluence in 6-well plates. […] The total RNA was isolated using Tri-reagent and subjected to reverse transcription polymerase chain reaction (RT-PCR™) analysis of IL-6 production using semi-quantitative analysis against HPRT expression (control gene).

osteoclasts [1] = conditions: peak of resorption (4 days), n = 8; cited from earlier work
[2] = test system: ovariectomized rats (OVX); conditions: OVX + PROM rats, cited from earlier work
[3] = post-menopausal women, 50 mg/day promethazine associated with estrogens; cited from earlier work
osteoclasts [4] = assay: CalciFluor assay (OsteoAssay): calcium released by osteoclast-mediated resorptive activity; format: cell-based
Excerpt: A CalciFluor assay is used to measure the calcium that is released as a result of osteoclast-mediated resorptive activity. The first run of this assay looked at three new inventive compounds as well as establishing the data on the internal controls, (+/−)-promethazine and Alendronate (bis-phosphonate). The preliminary data on standards and inventive analogs is provided in Table 3, some general SAR (structure-activity relationships) trends are apparent.
The assay is optimized and dose-response data is generated on the Alendronate and Promethazine controls.

[5] = Cytotoxicity testing of promethazine enantiomers; format: cell-based
osteoclasts [6] = assay: Osteoclast resorption assay on mammoth tusk slices; format: cell-based
Description: During this time, osteoclasts mature and degrade bone matrix. At the end of the incubation period, cells are removed, the specimen examined by SEM and the absorption area/slice is quantitated versus control (untreated) slices.

[7] = first run, preliminary data, read-out: OsteoAssay IC50

Structure (SMILES): CCN(CC)C(C)CN1c2ccccc2Sc2ccccc21 (racemic) [Ethopropazine racemate, ethopropazine]
Anti-histamine activity (IL-6 production assay), in words (H1 receptor): so effective that resolution of the more active enantiomer could not be determined | Histamine-stimulated IL-6 production reduced to fraction of that observed with histamine stimulation (H1 receptor): approximately one fifth

Structure (SMILES): CCN(CC)C(C)CN1c2ccccc2Sc2ccccc21.Cl (single isomer, unassigned) [ethopropazine (−) enantiomer]
Effectiveness relative to the (+) enantiomer (IL-6 reduction) (H1 receptor; ethopropazine): four times | Effectiveness relative to the racemate (IL-6 reduction) (H1 receptor; ethopropazine): approximately twice | Histamine-stimulated IL-6 production reduced to fraction of that observed with histamine stimulation (H1 receptor): one tenth

Structure (SMILES): CC(CN(C)C)CN1c2ccccc2Sc2ccccc21 (single isomer, unassigned) [trimeprazine (+) enantiomer]
Anti-histamine activity (IL-6 production assay), in words (H1 receptor): so effective that resolution of the more active enantiomer could not be determined

Structure (SMILES): COc1ccc(CN(CCN(C)C)c2ccccn2)cc1 [Mepyramine, mepyramine]
Active Osteoclasts (on-bone cells) (osteoclasts [1]): 9.6 ± 0.7 | Inactive Osteoclasts (off-bone cells) (osteoclasts [1]): 5.7 ± 0.8 | OBIT (OBI, mean interface of the active cells with the bone surface) (osteoclasts [1]): 18.4 ± 0.8 | RS (osteoclasts [1]): 17.6 ± 1.3 | Total Osteoclasts (osteoclasts [1]): 15.3 ± 1.5

Structure (SMILES): CC(CN1c2ccccc2Sc2ccccc21)N(C)C (racemic) [Promethazine racemate, promethazine]
Vertebra mg ([2]; 5th lumbar vertebra): 253 ± 24 mg | Vertebra mm ([2]; 5th lumbar vertebra): 6.3 ± 0.3 mm | Cn-BV-TV (femur cancellous bone volume) [2]: 12.5 ± 5.6% | F-BMC (femur bone mineral content) [2]: 336 ± 30 mg | F-BMC/BW [2]: 1.06 ± 0.06 mg/g | F-BMD (femur bone mineral density) [2]: 125 ± 14 mg/cm^2 | Femur mg [2]: 716 ± 38 mg | Femur mm [2]: 34.5 ± 0.7 mm | Tb-N (trabecular number) [2]: 2.1 ± 0.7 mm^−1 | Tb-Sp (trabecular separation) [2]: 477 ± 215 μm | Tb-Th (trabecular thickness) [2]: 57.5 ± 7.3 μm | V-BMC (5th lumbar vertebral bone mineral content) [2]: 100 ± 10 mg | V-BMD (5th lumbar vertebral bone mineral density) [2]: 108 ± 6 mg/cm^2 | Z score F-BMC [2]: −1.7 ± 0.9 | Annual gain in spinal bone mass [3]: 3%

pIC50 (osteoclasts [4]; [7]): > 6.00
Structure (SMILES): COc1ccc2c(c1)N(C[C@@H](C)N(C)C)c1ccccc1S2 [(R)-l-(2-methoxy-10H-phenothiazin-10-yl)-N,N-dimethylpropan-2-amine]

Structure (SMILES): CN/C(=N/CCSCc1nc[nH]c1C)NC#N [Cimetidine, cimetidine]
Active Osteoclasts (on-bone cells) (osteoclasts [1]): 6.2 ± 0.8 | Inactive Osteoclasts (off-bone cells) (osteoclasts [1]): 3.1 ± 0.7 | OBIT (OBI, mean interface of the active cells with the bone surface) (osteoclasts [1]): 24.7 ± .9 | RS (osteoclasts [1]): 14.4 ± 2.0 | Total Osteoclasts (osteoclasts [1]): 9.4 ± 1.4

pIC50 (osteoclasts [4]; [7]): < 5.00
Structure (SMILES): C[C@H](CN1c2ccccc2Sc2ccc(C(F)(F)F)cc21)N(C)C [(R)-N,N-dimethyl-1-(2-(trifluoromethyl)-10H-phenothiazin-10-yl)propan-2-amine]

pIC50 (osteoclasts [4]; optimized assay, dose response, FIG. 13, read-out: IC50, calcium release by osteoclast-mediated resorption): ~5.00
Structure (SMILES): NCCCC(O)(P(=O)(O)O)P(=O)(O)O [Alendronate, alendronate]

pIC50 (osteoclasts [4]; [7]): < 5.00
Structure (SMILES): C[C@H](CN1c2ccccc2Sc2ccc(Cl)cc21)N(C)C [(R)-l-(2-chloro-10H-phenothiazin-10-yl)-N,N-dimethylpropan-2-amine]

Structure (SMILES): C[C@@H](CN1c2ccccc2Sc2ccccc21)N(C)C [promethazine (−) enantiomer, (S)-N,N-dimethyl-1-(10H-phenothiazin-10-yl)propan-2-amine]
Cytotoxicity compared to the racemic mixture [5]: the same was also true

Structure (SMILES): CCN(CC)C(C)CN1c2ccccc2Sc2ccccc21.Cl (single isomer, unassigned) [ethopropazine (+) enantiomer]
Anti-histamine activity (IL-6 production assay), in words (H1 receptor): so effective that resolution of the more active enantiomer could not be determined | Histamine-stimulated IL-6 production reduced to fraction of that observed with histamine stimulation (H1 receptor): approximately two fifths

pIC50 (osteoclasts [4]; [7]): > 6.00
Structure (SMILES): C[C@H](CN1c2ccccc2Sc2ccccc21)N(C)C [(+)-PMZ, (R)-N,N-dimethyl-1-(10H-phenothiazin-10-yl)propan-2-amine]
Concentration needed for 90% inhibition of bone resorption compared with the racemate (osteoclasts [6]): two orders of magnitude lower | Efficacy for osteoclast inhibition compared with the racemate and the (−) enantiomer (osteoclasts [6]): threefold higher | inhibition at 0.1 µM (osteoclasts [6]; Osteoclast, 336 h, 10^−7 M, 14 days, read-out: Inhibition of bone resorption): 90% | Cytotoxicity compared to the racemic mixture [5]: did not have any significant increase in cytotoxicity

Structure (SMILES): CC(CN(C)C)CN1c2ccccc2Sc2ccccc21 (racemic) [trimeprazine racemate, trimeprazine]
Anti-histamine activity (IL-6 production assay), in words (H1 receptor): so effective that resolution of the more active enantiomer could not be determined
